According to ChEMBL document CHEMBL1201862, “PubChem BioAssay data set” (2004):
Counter-ions that a name gives are not always drawn. Calls of active or inactive are those of the source.

Assays:
[1] = molecular target: T1, Zinc finger protein mex-5 (Caenorhabditis elegans, UniProt Q9XUB2); test: potency of MEX-5 RNA-binding blockers – biochemical, C. elegans, fluorescence polarization, dose response (AID 1960)
T1 sequence (Q9XUB2 whole entry): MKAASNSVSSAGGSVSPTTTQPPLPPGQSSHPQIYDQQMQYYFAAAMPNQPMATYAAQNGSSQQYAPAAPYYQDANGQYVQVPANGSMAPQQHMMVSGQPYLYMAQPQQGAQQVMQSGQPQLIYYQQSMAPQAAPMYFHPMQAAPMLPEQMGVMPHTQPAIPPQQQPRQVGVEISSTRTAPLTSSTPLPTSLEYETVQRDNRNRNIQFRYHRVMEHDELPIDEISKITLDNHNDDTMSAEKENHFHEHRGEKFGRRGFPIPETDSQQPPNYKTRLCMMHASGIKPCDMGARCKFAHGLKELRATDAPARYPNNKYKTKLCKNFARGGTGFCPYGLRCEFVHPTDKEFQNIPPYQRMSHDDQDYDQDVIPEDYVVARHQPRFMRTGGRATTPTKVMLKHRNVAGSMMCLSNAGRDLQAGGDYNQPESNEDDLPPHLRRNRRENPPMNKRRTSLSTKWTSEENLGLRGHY

[2] = molecular target: Protein Tat (Human immunodeficiency virus type 1 group M subtype B (isolate HXB2)(HIV-1), UniProt P04608); type: functional;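 note: tat binding to TAR RNA read out by fluorescence polarization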
Protein Tat, sequence (P04608 whole entry): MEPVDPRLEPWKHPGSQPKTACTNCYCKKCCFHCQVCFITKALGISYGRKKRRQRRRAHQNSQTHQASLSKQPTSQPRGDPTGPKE

[3] = molecular target: T2, Mannose-6-phosphate isomerase (Homo sapiens, UniProt P34949); test: MPI enzyme activity inhibition – biochemical, fluorescence intensity, coupled assay, primary screen (AID 1209)
T2 sequence (P34949 whole entry): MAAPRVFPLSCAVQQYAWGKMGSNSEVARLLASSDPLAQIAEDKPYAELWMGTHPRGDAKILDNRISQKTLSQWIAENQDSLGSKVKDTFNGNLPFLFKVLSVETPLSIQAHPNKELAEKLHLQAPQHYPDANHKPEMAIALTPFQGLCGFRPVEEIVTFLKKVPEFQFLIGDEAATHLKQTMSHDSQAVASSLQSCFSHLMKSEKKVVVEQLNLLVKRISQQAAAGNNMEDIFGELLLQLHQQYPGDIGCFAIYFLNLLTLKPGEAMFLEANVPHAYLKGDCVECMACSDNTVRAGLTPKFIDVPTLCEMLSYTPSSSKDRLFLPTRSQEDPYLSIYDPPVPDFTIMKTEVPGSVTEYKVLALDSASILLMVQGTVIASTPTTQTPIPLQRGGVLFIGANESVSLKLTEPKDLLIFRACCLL

[4] = molecular target: T3, RNA-binding protein pos-1 (Caenorhabditis elegans, UniProt G5EF15); test: disruptors of C. elegans POS-1 RNA interaction – biochemical, fluorescence polarization, dose response (AID 1964);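 note: purified POS-1 fused to maltose binding protein made in E. coli; potency of compounds blocking POS-1 binding to fluorescent RNA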
T3 sequence (G5EF15 whole entry): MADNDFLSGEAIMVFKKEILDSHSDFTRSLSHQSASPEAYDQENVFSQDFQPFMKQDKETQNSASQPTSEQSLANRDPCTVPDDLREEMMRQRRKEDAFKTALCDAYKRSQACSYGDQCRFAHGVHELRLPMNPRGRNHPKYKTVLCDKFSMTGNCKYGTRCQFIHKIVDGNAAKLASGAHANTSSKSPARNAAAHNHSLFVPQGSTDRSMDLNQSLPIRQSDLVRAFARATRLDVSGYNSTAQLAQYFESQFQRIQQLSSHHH

[5] = cytotoxicity toward Colo320 cells – cell-based, CellTiter-Glo luminescence, IC50, dose response (AID 1117334); type: functional; conditions: COLO 320
[6] = RKO cell viability reduction, dose response, CellTiter-Glo luminescence (AID 1117322); type: functional
[7] = CellTiter-Glo luminescence survival assay, SW480 colon tumor line, concentration-response curve, half-maximal inhibitory concentration (AID 1117338); type: functional
[8] = SNU-C1 cell viability reduction, dose response, CellTiter-Glo luminescence (AID 1117323); type: functional, cell-based
[9] = HCT116 cell viability decrease, GSK3B pretreatment – CellTiter-Glo, IC50, dose response (AID 1117339); type: functional; conditions: HCT-116
[10] = cytotoxicity toward HT-29 cells – cell-based, CellTiter-Glo luminescence, IC50, dose response (AID 1117330); type: functional
[11] = molecular target: Aryl hydrocarbon receptor (Homo sapiens, UniProt P35869); conditions: Potency;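 note: confirmatory quantitative high-throughput screen measuring activation of the AhR signaling pathway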
Aryl hydrocarbon receptor, sequence (P35869 whole entry): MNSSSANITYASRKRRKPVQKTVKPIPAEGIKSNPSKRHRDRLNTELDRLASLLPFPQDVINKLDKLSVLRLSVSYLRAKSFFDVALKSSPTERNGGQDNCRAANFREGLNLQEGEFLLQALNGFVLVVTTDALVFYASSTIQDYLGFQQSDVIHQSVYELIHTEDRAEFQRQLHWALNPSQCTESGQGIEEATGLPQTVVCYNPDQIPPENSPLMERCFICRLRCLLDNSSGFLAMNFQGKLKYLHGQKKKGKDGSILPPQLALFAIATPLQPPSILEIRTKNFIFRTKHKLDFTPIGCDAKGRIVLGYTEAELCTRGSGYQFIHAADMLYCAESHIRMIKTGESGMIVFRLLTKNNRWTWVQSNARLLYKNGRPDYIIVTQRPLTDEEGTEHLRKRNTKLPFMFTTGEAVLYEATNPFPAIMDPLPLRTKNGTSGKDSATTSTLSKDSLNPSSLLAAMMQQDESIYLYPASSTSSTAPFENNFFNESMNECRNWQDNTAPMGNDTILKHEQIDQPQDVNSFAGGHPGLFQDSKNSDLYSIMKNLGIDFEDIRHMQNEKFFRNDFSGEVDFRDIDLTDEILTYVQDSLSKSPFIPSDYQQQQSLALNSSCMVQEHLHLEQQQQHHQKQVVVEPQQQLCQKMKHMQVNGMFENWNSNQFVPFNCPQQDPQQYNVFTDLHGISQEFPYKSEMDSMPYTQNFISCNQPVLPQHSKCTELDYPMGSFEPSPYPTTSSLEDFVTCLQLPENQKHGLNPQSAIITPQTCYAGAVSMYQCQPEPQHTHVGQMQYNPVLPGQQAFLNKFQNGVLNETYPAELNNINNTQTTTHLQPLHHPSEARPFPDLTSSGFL

[12] = cytotoxicity toward HCT116 cells – cell-based, CellTiter-Glo luminescence, IC50, dose response (AID 1117332); type: functional; conditions: HCT-116
[13] = Reduced DLD-1 viability, concentration-response, CellTiter-Glo luminescence (AID 1117352); type: functional
[14] = IC50 of insulin release inhibition, rat insulinoma INS-1E line, 5 mM glucose, cell-based (AID 1117331); type: functional
[15] = molecular target: T4, Sentrin-specific protease 8 (Homo sapiens, UniProt Q96LD8); type: functional
T4 sequence (Q96LD8 whole entry): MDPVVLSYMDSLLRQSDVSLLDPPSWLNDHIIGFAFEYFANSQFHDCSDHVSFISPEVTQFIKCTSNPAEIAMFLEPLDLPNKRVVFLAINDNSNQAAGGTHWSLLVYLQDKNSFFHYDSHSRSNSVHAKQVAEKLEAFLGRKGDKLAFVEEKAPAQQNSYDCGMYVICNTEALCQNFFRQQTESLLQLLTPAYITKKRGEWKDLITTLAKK

[16] = molecular target: T5, Caspase-6 (Homo sapiens, UniProt P55212); test: inhibition of CASP6 peptide cleavage – biochemical, VEID-R110 fluorescence, cherry-pick, dose response (AID 720632)
T5 sequence (P55212 whole entry): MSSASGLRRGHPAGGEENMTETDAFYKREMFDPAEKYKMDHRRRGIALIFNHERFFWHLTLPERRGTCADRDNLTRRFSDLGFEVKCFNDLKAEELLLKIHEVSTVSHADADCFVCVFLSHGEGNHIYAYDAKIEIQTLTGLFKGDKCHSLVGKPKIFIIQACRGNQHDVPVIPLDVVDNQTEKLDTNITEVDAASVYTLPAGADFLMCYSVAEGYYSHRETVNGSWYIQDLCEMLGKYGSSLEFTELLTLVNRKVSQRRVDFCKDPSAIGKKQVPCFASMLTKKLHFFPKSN

[17] = molecular target: Tyrosyl-DNA phosphodiesterase 2 (Homo sapiens, UniProt O95551); test: potency against TDP2 phosphodiesterase activity – biochemical, epi absorbance, IC50, dose response (AID 743297)
Tyrosyl-DNA phosphodiesterase 2, sequence (O95551 whole entry): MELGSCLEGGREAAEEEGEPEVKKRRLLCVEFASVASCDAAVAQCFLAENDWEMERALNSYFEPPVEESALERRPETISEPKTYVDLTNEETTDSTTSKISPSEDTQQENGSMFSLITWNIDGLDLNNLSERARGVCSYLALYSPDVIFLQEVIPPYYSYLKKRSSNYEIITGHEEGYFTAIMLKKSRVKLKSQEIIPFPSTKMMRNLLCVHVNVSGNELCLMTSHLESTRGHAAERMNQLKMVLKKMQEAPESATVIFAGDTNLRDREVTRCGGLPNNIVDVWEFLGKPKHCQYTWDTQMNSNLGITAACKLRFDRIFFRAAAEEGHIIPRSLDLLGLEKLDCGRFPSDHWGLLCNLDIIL

[18] = molecular target: Glutathione-S-transferase (Schistosoma japonicum, UniProt Q26513); test: GST-antibody interaction or FRET quenching – biochemical, TR-FRET, artefact control for Vif-APOBEC3G degradation inhibitor project, dose response (AID 1117362); type: functional
Glutathione-S-transferase, sequence (Q26513 whole entry): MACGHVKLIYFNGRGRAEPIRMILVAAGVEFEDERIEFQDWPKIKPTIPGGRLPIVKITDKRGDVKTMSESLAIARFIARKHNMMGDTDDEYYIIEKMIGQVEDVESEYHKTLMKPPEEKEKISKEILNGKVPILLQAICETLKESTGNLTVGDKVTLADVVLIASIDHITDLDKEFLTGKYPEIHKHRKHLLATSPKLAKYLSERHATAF

[19] = molecular target: T6, Histone-lysine N-methyltransferase NSD2 (Homo sapiens, UniProt O96028); type: biochemical
T6 sequence (O96028 whole entry): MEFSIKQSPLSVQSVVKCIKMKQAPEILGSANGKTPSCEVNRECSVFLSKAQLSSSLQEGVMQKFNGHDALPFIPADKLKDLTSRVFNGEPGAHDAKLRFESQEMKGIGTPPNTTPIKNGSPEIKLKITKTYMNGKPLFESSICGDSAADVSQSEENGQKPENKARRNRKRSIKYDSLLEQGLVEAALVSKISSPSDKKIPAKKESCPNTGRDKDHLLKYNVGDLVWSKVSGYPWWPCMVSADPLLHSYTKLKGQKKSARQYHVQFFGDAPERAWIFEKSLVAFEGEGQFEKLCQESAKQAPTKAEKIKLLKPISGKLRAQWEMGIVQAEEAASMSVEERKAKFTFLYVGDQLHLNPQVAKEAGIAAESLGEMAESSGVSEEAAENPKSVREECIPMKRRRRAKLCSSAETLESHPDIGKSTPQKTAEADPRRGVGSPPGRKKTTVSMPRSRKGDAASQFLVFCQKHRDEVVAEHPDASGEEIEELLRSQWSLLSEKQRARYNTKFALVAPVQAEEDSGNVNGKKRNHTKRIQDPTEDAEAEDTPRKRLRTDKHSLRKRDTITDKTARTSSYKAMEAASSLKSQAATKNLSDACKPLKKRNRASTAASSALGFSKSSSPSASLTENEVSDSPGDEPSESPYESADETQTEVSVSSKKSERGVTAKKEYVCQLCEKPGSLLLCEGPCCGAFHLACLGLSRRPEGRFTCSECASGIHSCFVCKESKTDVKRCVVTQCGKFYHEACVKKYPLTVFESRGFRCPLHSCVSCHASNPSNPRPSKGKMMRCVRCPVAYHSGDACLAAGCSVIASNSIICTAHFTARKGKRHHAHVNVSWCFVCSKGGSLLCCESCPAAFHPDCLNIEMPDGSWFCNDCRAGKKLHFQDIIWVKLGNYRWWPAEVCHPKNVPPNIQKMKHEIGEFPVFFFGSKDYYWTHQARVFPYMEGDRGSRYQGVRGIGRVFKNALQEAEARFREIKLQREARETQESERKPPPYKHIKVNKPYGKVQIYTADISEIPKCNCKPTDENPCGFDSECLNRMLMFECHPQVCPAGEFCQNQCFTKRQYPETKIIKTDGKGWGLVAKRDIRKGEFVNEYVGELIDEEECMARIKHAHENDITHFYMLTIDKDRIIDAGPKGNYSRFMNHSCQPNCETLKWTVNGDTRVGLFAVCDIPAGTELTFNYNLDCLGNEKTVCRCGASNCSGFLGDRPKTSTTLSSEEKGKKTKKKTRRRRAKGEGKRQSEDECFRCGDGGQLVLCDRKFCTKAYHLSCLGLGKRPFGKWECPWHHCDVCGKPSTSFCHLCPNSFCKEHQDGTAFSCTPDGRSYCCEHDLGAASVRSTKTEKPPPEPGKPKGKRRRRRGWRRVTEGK

[20] = molecular target: T7, SUMO-activating enzyme (Homo sapiens, UniProt Q9UBT2); test: blockers of UBC9-mediated SUMO conjugation – biochemical, AlphaScreen, SUMOylation inhibitor project, confirmation (AID 2018); type: functional
T7 sequence (Q9UBE0 whole entry): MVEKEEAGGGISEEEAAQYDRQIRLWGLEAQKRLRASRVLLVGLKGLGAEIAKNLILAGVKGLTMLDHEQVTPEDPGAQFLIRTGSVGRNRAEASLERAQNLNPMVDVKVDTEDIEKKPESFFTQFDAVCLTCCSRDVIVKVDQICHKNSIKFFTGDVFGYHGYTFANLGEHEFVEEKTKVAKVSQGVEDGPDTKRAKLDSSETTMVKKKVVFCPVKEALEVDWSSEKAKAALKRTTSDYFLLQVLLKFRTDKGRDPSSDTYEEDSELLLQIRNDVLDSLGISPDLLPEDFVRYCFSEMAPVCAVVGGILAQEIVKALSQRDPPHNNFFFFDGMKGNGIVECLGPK
T7 sequence (Q9UBT2 whole entry): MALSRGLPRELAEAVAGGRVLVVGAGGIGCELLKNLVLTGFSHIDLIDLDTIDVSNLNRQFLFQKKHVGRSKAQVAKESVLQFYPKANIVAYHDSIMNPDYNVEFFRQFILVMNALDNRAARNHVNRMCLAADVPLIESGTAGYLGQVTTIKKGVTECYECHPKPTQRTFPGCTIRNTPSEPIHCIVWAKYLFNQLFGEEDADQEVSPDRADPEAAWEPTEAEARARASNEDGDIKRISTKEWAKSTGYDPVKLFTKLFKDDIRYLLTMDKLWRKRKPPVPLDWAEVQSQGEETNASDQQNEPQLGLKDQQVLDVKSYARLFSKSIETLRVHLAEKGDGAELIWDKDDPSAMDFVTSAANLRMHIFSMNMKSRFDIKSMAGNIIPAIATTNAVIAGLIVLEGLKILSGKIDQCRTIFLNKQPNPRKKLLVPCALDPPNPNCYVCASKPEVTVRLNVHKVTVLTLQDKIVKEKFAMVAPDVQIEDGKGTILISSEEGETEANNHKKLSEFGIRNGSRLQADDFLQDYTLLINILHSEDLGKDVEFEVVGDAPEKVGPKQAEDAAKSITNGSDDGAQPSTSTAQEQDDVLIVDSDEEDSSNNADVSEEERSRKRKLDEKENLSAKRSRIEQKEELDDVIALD

[21] = molecular target: T8, Apoptotic protease-activating factor 1 (Homo sapiens, UniProt O14727); type: functional
T8 sequence (O14727 whole entry): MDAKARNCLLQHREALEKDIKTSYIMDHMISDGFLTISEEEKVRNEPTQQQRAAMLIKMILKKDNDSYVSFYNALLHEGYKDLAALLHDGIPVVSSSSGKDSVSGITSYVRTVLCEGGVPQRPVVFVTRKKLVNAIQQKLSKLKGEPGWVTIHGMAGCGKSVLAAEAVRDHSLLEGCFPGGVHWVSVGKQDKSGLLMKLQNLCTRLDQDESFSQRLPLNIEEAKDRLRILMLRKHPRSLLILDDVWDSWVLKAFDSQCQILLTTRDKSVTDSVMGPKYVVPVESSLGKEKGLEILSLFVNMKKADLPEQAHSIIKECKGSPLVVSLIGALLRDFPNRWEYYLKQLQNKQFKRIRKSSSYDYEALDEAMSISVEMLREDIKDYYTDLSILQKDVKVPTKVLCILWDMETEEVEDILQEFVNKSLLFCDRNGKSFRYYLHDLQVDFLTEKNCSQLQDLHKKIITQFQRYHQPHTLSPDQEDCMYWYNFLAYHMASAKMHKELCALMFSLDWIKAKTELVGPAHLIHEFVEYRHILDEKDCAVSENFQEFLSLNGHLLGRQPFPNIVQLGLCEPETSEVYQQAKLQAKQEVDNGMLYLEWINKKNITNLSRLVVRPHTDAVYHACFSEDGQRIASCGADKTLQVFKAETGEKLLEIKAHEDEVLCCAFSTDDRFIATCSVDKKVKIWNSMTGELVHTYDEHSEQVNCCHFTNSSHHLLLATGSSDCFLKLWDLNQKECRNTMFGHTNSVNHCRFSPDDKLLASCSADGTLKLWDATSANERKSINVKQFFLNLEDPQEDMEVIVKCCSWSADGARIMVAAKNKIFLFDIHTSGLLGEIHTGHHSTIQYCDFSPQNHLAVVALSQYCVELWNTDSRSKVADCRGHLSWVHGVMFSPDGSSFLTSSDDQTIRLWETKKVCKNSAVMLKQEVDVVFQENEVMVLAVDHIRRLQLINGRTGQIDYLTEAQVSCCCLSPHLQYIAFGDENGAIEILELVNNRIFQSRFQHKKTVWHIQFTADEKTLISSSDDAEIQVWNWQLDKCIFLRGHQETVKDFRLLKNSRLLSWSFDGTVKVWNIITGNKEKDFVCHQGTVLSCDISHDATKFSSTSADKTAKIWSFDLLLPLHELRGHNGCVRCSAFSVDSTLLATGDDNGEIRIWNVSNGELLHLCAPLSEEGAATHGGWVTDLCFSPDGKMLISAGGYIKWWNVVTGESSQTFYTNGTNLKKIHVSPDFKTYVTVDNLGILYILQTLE

[22] = molecular target: T7, SUMO-activating enzyme; test: blockers of SAE1/SAE2–UBC9 SUMO transfer – biochemical, HTRF, uHTS, primary screen (AID 2006); type: protein-complex assay
[23] = molecular target: T4, Sentrin-specific protease 8; type: functional; remark: listed apart in the source

SMILES | IC50 [2] | IC50 [5] | IC50 [6] | IC50 [7] | IC50 [8] | IC50 [9] | IC50 [10] | IC50 [12] | IC50 [13] | other results
Cc1cc(O)c(Oc2cc(C)cc(O)c2O)c(O)c1 | > 100 µM (active) | – | – | – | – | – | – | – | – | EC50 [1]: 12.9 µM (active); IC50 [3]: 39.5 µM (active); EC50 [4]: 43.9 µM (active)
CN(C)c1ccc(C(=C2C=CC(=[N+](C)C)C=C2)c2ccccc2)cc1 | – | 0.161 µM (active) | 0.118 µM (active) | 0.00922 µM (active) | 0.0354 µM (active) | 0.00983 µM (active) | 0.00982 µM (active) | 0.0179 µM (active) | 0.0218 µM (active) | AC50 [11]: 7.94 µM (inconclusive)
NC1=NCC2c3ccccc3Cc3ccccc3N12 (configuration not stated) [EPINASTINE HYDROCHLORIDE] | – | > 20 µM (inactive) | > 20 µM (inactive) | > 20 µM (inactive) | > 20 µM (inactive) | > 20 µM (inactive) | > 20 µM (inactive) | > 20 µM (inactive) | > 20 µM (inactive) | –
CN1CCN(C(=O)CSc2nc(-c3cccs3)ccc2C#N)CC1 | > 100 µM (active) | – | – | – | – | – | – | – | – | –
CN(C)CCCOc1nn(Cc2ccccc2)c2ccccc12 [BENZYDAMINE HYDROCHLORIDE] | – | – | – | – | – | – | – | – | – | IC50 [14]: 21.4 µM (inactive)
CN(C)c1cc(Cl)c2nonc2c1N | – | – | – | – | – | – | – | – | – | IC50 [15]: 8.12 µM (active); AC50 [16]: 12.6 µM (active); IC50 [17]: 9.9 µM (active); IC50 [18]: > 100 µM (active); AC50 [19]: 4.43 µM (active); IC50 [20]: 2.7 µM (active); IC50 [21]: 16.8 µM (active); IC50 [22]: 16.2 µM (active); IC50 [23]: 6.83 µM (active)
